In ChEMBL document CHEMBL1126820, “4-alkylamino-3-bromo-N-alkyl-1,8-naphthalimides: new photochemically activatable antiviral compounds” (1993):

Legend:
[1] = Concentration required for Photoinactivation of enveloped viruses; format: functional
Human alphaherpesvirus 1 = experiment: Photoinactivation against simplex virus type 1; format: functional
[2] = tested on: Human immunodeficiency virus 1; experiment: Concentration required for Photoinactivation of cell-associated HIV-1; format: functional
[3] = tested on: Human immunodeficiency virus 1; experiment: Concentration required for Photoinactivation of cell-free HIV-1; format: functional, organism-based

| SMILES | Activity [1] | Activity (Human alphaherpesvirus 1) | Activity [2] | Activity [3] |
| --- | --- | --- | --- | --- |
| CCCCCCN1C(=O)c2cccc3c(NCCNC(=O)CCCCC(=O)NCCNc4c(Br)cc5c6c(cccc46)C(=O)N(CCCCCC)C5=O)c(Br)cc(c23)C1=O | 0.1 µM | <500 nM | 300 nM | 1 µM |
| CCCCCCCCNc1c(Br)cc2c3c(cccc13)C(=O)N(CCCCCCCC)C2=O | 0.1 µM |  |  |  |
| CCCCNc1c(Br)cc2c3c(cccc13)C(=O)N(CCCC)C2=O | 0.1 µM |  |  |  |
| CCCCCCNc1c(Br)cc2c3c(cccc13)C(=O)N(CCCCCC)C2=O | 0.1 µM |  |  |  |
